One molecule from US4565805A, “Pharmaceutical preparation for the treatment of peptic ulcer” (priority 1984, dated 1986) can be followed below.

In assay [1] the test system is patients suffering from duodenal peptic ulcer. How it is done:
The preparation was tested in clinic on 40 patients suffering from duodenal peptic ulcer. The control groups consisted of 20 patients treated with cymethidin in the daily dose of 800 mg. Only male patients were subjected to the treatment, their age varied from 22 to 56 years. The duration of the disease was different: from newly detected ulcer to 28 years of the disease. The diagnosis of the peptic ulcer was made on the basis of generally accepted clinical tests with an obligatory use of the gastroduodenoscopy. The gastroduodenoscopy was carried out prior to administration of the preparation and 14, 21 and 28 days thereafter (the two latter endoscopy were carried out only in the use of non-scarring ulcers).
The preparation was administered intramuscularly in a dose of 10-15 μg/kg in a 0.9% aqueous solution of sodium chloride twice a day (in the moring at 7 a.m. and in the evening at 19 p.m.). The treatment course was 14-28 days, the course dose of the preparation was 30-60 mg. Apart from the preparation, the patients were given no additional pharmaceuticals, antacids were also excluded.

Assay [2] has as its system experimental duodenal ulcers (cystamine) in rats. The note with it: preparation 12 μg/kg twice a day, cymethidin 7 mg/kg a day.
Protocol: 170 rats were used. […] The animals of the control group were injected with a physiological solution. The slaughter of the animals was effected in groups of 10 animals within different periods after the beginning of the experiment.

The structures appear in SMILES notation. Read-outs that look alike come from different tables or passages of the source.

As to `CN/C(=N\CCSCc1nc[nH]c1C)NC#N` [cymethidin], the “patients with pains still noted” value in assay [1] (by the end of the 2-nd week, cymethidin 800 mg daily) was found to be 35%. Also, the “patients with healed ulcer” value in assay [1] (by the end of the 3-rd week, preparation 10-15 μg/kg i.m. twice a day, cymethidin 200 mg 4 times a day) came to 65%. The ulcer index is 1.6 in assay [2] (24 hrs, control 3.1); 1.6 in assay [2] (48 hrs, control 3.3); 1.5 in assay [2] (72 hrs, control 3.2); 0.8 in assay [2] (7 ds, control 1.8); 0 in assay [2] (14 ds, control 1.2). The “time of complete healing of ulcers” value in assay [2] was “by the end of the second week”.
